What all share (format): physicochemical
Data set [1] in a line: Stability of substituted Fmoc-aniline to catalytic hydrogenation. Particulars: palladium on charcoal, hydrogen 1 atm, 20 hours. How it is done:
1. Deblocking of 2,7-Bistrimethyl-silyl)-9-fluorenylmethyl Carbanilate: To a solution of 0.2 g BTS-Fmoc-aniline in 15 mL of 100% ethanol and 15 mL of EtOAc was added 20 mg of 10% palladium on charcoal at 0° C. The heterogeneous mixture was stirred under a hydrogen atmosphere (1 atm) for 20 hours. The catalyst was filtered and rinsed with EtOAc (2×5 mL). The combined filtrate was washed with sat'd NH4 Cl (2×20 mL), water (20 mL), and dried over anhydrous MgSO4. After evaporating the solvent in vacuo, the residue (0.14 g) was recrystallized from 95% ethanol to afford 0.11 g (78.0%) of 2,7-bis(trimethylsilyl)-9-methylfluorene as white needles, m.p. 106.5°-108° C., identified by mixture melting point, IR, and NMR spectral comparison with an authentic sample obtained as described above.
2. Stability of 9-Trimethylsilyl-9-fluorenylmethyl Carbanilate Towards Catalytic Hydrogenation: To a mixture of 0.15 g of TMS-Fmoc-analine and 0.15 g of BTS-Fmoc-analine in 20 mL of ethyl acetate and 30 mL of 100% ethanol was added 30 mg of […] palladium on charcoal. The mixture was magnetically stirred at room temperature under a hydrogen atmosphere (1 atm) for 20 hours. The catalyst was removed by filtration and rinsed with EtOAc (2×5 mL). […] Recrystallization of the former from 95% ethanol gave 78.3 mg (74.1%) of the pure silane, m.p. 107°-108.5° C. […]

Data set [2] in a line: Solubility of TMS-Fmoc and dichloro-Xmoc derivatives versus Fmoc analogs.
Protocol: This latter property is particularly important when peptide synthesis is carried out in solution.
A short description of data set [3]: General statements on cleavage by piperidine or fluoride ion. Particulars: piperidine.
Data set [4] in a line: Base deblocking of substituted urethanes (U-PCA) by various amines. Particulars: dichloromethane, room temperature. An excerpt: 1. General Procedure for Studying the Base Deblocking of the Urethanes Fmoc-PCA, BTS-Fmoc-PCA, DT-Fmoc-PCA, and TMS-Fmoc-PCA: A mixture of urethane (0.05 mmol) in a solution prepared from an equal volume of base (2.5 mmol, 50 eq.) and dichloromethane was stirred at room temperature. The course of the reaction was monitored by TLC with an eluant consisting of Skelly B--ether (3:1).

Data set [5] can be described thus: Stability of substituted Fmoc-PCA in acetic acid. Particulars: glacial acetic acid 10 eq., CH2Cl2, room temperature, 48 hours. How it is done: 2. […] The mixture was stirred at room temperature for 48 hours. […] The mixture was washed with half sat'd NaHCO3 (2×10 mL) and water (10 mL). […] 161°-163° C., the IR and ^1 H NMR spectra of which matched that of an authentic sample.
3. Stability of 9-Trimethylsilyl-9-[…] p-Chlorocarbanilate in Acetic Acid: To a solution of 0.37 g of TMS-Fmoc-PCA in 10 mL of CH2 Cl2 was added 0.5 mL (10 eq.) of glacial acetic acid. The mixture was stirred at room temperature. […] The mixture was washed with half sat'd NaHCO3 (2×10 mL) and H2 O (10 mL). […] 124°-126° C., the ^1 H NMR and IR spectra of which matched that of an authentic sample.

A short description of data set [6]: Base deblocking of R-Fmoc-aniline by various amines. The following applies: room temperature. How it is done: 2. General Procedure for Studying the Base Deblocking of the Urethanes R-Fmoc-aniline (R=TMS, DMPS, DPMS, DT-TMS, TIPS): A solution of urethane (0.05 mmol) in a sample of redistilled base (5 mmol, 100 eq.) was allowed to stand at room temperature. The reaction was monitored periodically by TLC with an eluant consisting of Skelly B--CH2 Cl2 (1:1). No reaction occurred according to the TLC test for urethanes having R=TIPS in the case of any of the bases tested after 24 hours.

Data set [7] in a line: Deblocking of R-Fmoc-aniline by fluoride ion. Particulars: tetra-n-butylammonium chloride 3.0 eq., KF dihydrate 4.1 eq., acetonitrile, room temperature. The procedure: 3. General Procedure for Studying the Deblocking of Urethanes R-Fmoc-aniline (R=TMS, DMPS, DPMS, TIPS, DT-TMS) by Reaction with Fluoride Ion: To a solution of urethane (0.0513 mmol) in 0.7 mL of acetonitrile was added 45 mg (0.154 mmol, 3.0 eq.) of tetra-n-butyl-ammonium chloride and 20 mg (0.213 mmol, 4.1 eq.) of potassium fluoride dihydrate. The mixture was stirred at room temperature, the reaction being monitored by TLC with an eluant consisting of Skelly B--CH2 Cl2 (1:1).

Data set [8] is described as follows: Deblocking of R-Fmoc-aniline by trifluoroacetic acid. The following applies: room temperature. The source says:
1. General Procedure for Studying the stability of R-Fmoc-analine (R=TMS, DMPS, DPMS, DT-TMS, TIPS) in Trifluoroacetic Acid: To a solution of urethane (0.026 mmol) in […].) of trifluoroacetic acid. The mixture was stirred at room temperature and the course of the reaction was monitored by TLC with an eluant consisting of Skelly B--dichloromethane (1:1) to note the time needed for complete deblocking of the urethanes.

A short description of data set [9]: Base deblocking of 9-xanthenylmethoxycarbonyl-L-phenylalanine. Particulars: room temperature. How it is done:
A. Base Deblocking of 9-Xanthenylmethoxycarbonyl-L-phenylalanine: 1. In DBU Solution: To a solution of 13.08 mg of Xmoc-Phe-Oh in 0.5 mL of DMF was added 0.5 mL of 1,8-diazabicyclo[5,4,0]-undec-7-ene (DBU, 100 eq.). The mixture was stirred at room temperature. The reaction was monitored by TLC with an eluant consisting of CHCl3 --CH3 OH--CH3 CO2 H (9:1:0.1). Deblocking was complete after 36 hours. 2. In TBD Solution: To a solution of 7.25 mg of Xmoc-Phe-OH in 0.1 mL of pyridine and 0.1 mL of DMF was added 50 mg (20 eq.) of 1,5,9-triazabicyclo[4,4,0]dec-5-ene (TBD). The mixture was stirred at room temperature and monitored by TLC with an eluant consisting of CHCl3 --CH3 OH--CH3 CO2 H (9:1:0.1). Deblocking was complete after 4.5 hours.

The nature of data set [10]: Stability of 9-xanthenylmethyl carbanilate towards catalytic hydrogenolysis. Particulars: 5% Pd/C and palladium acetate, 40 psi hydrogen, 24 hours. How it is done: 5. Stability of 9-Xanthenylmethyl Carbanilate Towards Catalytic Hydrogenolysis: To a solution of 300 mg of Xmoc-aniline in 30 mL of EtOAc and 10 mL of 100% EtOH was added 30 mg of 5% palladium on charcoal and 30 mg of palladium acetate. The mixture was shaken under hydrogen at a pressure of 40 psi in a Parr apparatus for 24 hours. […] 178°-181° C., the ^1 H NMR and IR spectra of which matched that of an authentic sample.

Take `C[Si](C)(C)c1ccc2c(c1)C(COC(=O)Nc1ccccc1)c1cc([Si](C)(C)C)ccc1-2` [BTS-Fmoc-aniline, 2,7-Bis(trimethylsilyl)-9-fluorenylmethyl Carbanilate]: the “product of catalytic hydrogenation (deblocking)” value in [1] was 2,7-bis(trimethylsilyl)-9-methylfluorene.

As for `C[Si](C)(C)C1(COC(=O)Nc2ccc(Cl)cc2)c2ccccc2-c2ccccc21` [Example 9-TMS-Fmoc], in data set [2] (in non-polar solvents), the “solubility compared with ordinary Fmoc analogs” value is given as “enormously more soluble in non-polar solvents than ordinary Fmoc analogs”. Besides, the “deblocking by / stability to piperidine” value in data set [3] is reported as “deblocked by piperidine, although somewhat more slowly than the Fmoc group itself”.

Turning to `C[Si](C)(C)C1(COC(=O)Nc2ccc(Cl)cc2)c2ccccc2-c2ccccc21` [TMS-Fmoc-PCA, 9-Trimethylsilyl-9-fluorenylmethyl p-Chlorocarbanilate], in [2] (in CH2Cl2), the “solubility relative to that of the Fmoc analog” value is listed as 16 times. The “soluble to the extent of (solubility)” value in data set [2] (in CH2Cl2) turned out to be 53 g/100 mL. The “Time for Complete Deblocking” value in data set [4] (ethanolamine 50 eq.) is 150 min; in data set [4] (morpholine 50 eq., significant aminodibenzofulvene type adduct formed), 780 min; in data set [4] (piperidine 50 eq., significant aminodibenzofulvene type adduct formed), 129 min; in data set [4] (t-butylamine 50 eq.) it was > 2900 min. Also, the “Time for Complete Scavenging of Dibenzofulvene Analogs” value in data set [4] (morpholine 50 eq.) amounted to 16.5 hr; in data set [4] (piperidine 50 eq.) it was 195 min. Moreover, the recovered urethane in [5] came to 97.5%. Besides, the “stability in acetic acid (TLC)” value in data set [5] is “no change”.

Turning to `C[Si](C)(C)C1(COC(=O)Nc2ccccc2)c2ccccc2-c2ccccc21` [TMS-Fmoc-aniline, 9-Trimethylsilyl-9-fluorenylmethyl Carbanilate], the “Time for Complete Deblocking” value turned out to be 180 min in data set [6] (morpholine 100 eq.), 100 min in [6] (piperidine 100 eq.) and 720 min in [6] (t-butylamine 100 eq.). Also, the “Time for Complete Scavenging of Dibenzofulvene” value turned out to be 240 min in data set [6] (morpholine 100 eq.) and 300 min in data set [6] (piperidine 100 eq.). Also, the “Time for Complete Deblocking by Fluoride Ion” value in data set [7] is recorded as 5 min. In addition, the “Time for Complete Deblocking by Trifluoroacetic Acid” value in data set [8] worked out at 5 h. Also, in data set [1] (room temperature), the recovered urethane came to 93.3%.

For `O=C(N[C@@H](Cc1ccccc1)C(=O)O)OCC1c2ccccc2Oc2ccccc21` [Xmoc-Phe-OH, 9-Xanthenylmethoxycarbonyl-L-phenylalanine], the “Time for Complete Deblocking” value in [9] (DBU 100 eq., DMF) is 36 h; in [9] (TBD 20 eq., pyridine and DMF) it was 4.5 h.

For `O=C(Nc1ccccc1)OCC1c2ccccc2Oc2ccccc21` [Xmoc-aniline, 9-Xanthenylmethyl Carbanilate], in [10], the recovered urethane is recorded as 94.3% and the “stability towards catalytic hydrogenolysis (TLC)” value was “remained intact”.

The values are drawn from US5101059A, “Amino acid protecting groups” (Research Corporation Technologies, Inc., priority 1989, dated 1992).
